Results reported in patent publication US20210361581A1, “ADDITIVE FOR A POWDER MATERIAL INTENDED FOR COMPACTION INTO SHAPED BODIES” (IOI OLEO GMBH, priority 2018, published 2021).

Tests used:
[1] = Lopes et al., J. Pharm. Sci. 104: 4257-4265, 2015; cited from earlier work
[2] = Contact angle with water (hydrophobicity); format: physicochemical; settings: 16 weeks at room temperature (20° C.) and at 40° C., against start value
Procedure: An advantageous property of the PGFEs for an additive in accordance with claim 1 which should be considered is the hydrophobicity, which can be determined by determining the contact angle. The determination of the hydrophobicity is carried out by determining the contact angle between the PGFE in the solid physical state and a droplet of purified water. According to Young's equation, cos θ=(γSV−γSL)/γLV, wherein γSL is the interfacial tension between the PGFE and water, γLV is the interfacial tension of the water droplet and γSV is the surface tension between the PGFE and the surrounding air. θ is the contact angle. Thus, the larger the contact angle θ, the higher is the surface tension between the PGFE and the water and the higher is the hydrophobicity of the PGFE under investigation. The contact angles for the proposed polyglycerol fatty acid esters also correlate with the HLB value which is often used in pharmaceutical technology, which is on a scale of 0 to 20 and provides information regarding the ratio of lipophilic to hydrophilic molecular fractions, wherein the hydrophilic fraction increases with increasing HLB value. […]

For CCCCCCCCCCCCCCCCCC(=O)OCC(COC(=O)CCCCCCCCCCCCCCCCC)OC(=O)CCCCCCCCCCCCCCCCC [glycerol tristearate], the “increase in the crystal thickness after complete transformation of a- into b-modification” value [1] is listed as “approximately 67%” and the “variation (deviation) of contact angle with water after 16 weeks” value [2] is listed as 40 °.
